# BindingDB's records for doi:10.7270/Q2TX3CTT (Broad Institute, 2010)
# Molecular target: Glycogen synthase kinase-3 beta (Homo sapiens, UniProt P49841)
# Assay: GSK3beta kinase inhibitor potency, dose response, biochemical, luminescence, cell-free homogeneous, retest (AID 434954)
# Glycogen synthase kinase-3 beta, sequence (P49841 whole entry): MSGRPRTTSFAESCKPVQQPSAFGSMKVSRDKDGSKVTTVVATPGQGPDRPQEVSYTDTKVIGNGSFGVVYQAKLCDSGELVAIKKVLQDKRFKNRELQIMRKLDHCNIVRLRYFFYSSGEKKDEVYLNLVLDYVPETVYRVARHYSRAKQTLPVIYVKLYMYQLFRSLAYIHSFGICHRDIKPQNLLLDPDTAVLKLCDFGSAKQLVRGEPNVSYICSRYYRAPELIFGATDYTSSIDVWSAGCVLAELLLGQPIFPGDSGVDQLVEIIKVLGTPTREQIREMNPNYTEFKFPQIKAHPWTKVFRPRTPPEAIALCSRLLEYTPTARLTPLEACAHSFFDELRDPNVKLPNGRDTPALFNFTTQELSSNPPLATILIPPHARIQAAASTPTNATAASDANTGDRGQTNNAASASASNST
row,Structure (SMILES),EC50 [µM]
1,Cc1[nH]nc2c1C(c1cccc(O)c1)C1C(=O)CC(C)(C)CC1=N2 (stereo not given) [MLS000081979],0.421
2,"O=S(=O)(NCCC1CC1(Cl)Cl)c1ccc(Cl)cc1 (stereo not given) [N1-[2-(2,2-dichlorocyclopropyl)ethyl]-4-chlorobenzene-1-sulfonamide]",> 300
3,COc1cc(NC(=O)COC(=O)CCc2cc(OC)c(OC)c(OC)c2)cc(OC)c1 [SMR000349752],> 300
4,CCOC(=O)c1cnc2ccc(OCC)cc2c1N1CCN(C)CC1 [MLS000047802],49.5
5,"CC1CCc2c(sc(Nc3nc4c(F)cccc4s3)c2C(N)=O)C1 (stereo not given) [2-[(4-fluoranyl-1,3-benzothiazol-2-yl)amino]-6-methyl-4,5,6,7-tetrahydro-1-benzothiophene-3-carboxamide]",> 300
6,Cc1ccccc1-c1nnc(SCCOc2ccc3c(C)cc(=O)oc3c2)o1,> 300
7,CC(C)CNc1nc(N)c([N+](=O)[O-])c(NCC2CCCO2)n1 (stereo not given),6.1
8,CC(=NNC(=S)Nc1c(C)cccc1C)c1cc2ccccc2o1 [SMR000260555],> 300
9,O=C(Nc1ccccc1)Nc1cnccn1 [MLS001229949],> 300
10,COc1cc(C2C(C(=O)c3cccs3)C(=O)C(=O)N2CCN2CCOCC2)ccc1OCCC(C)C (stereo not given) [SMR000476070],> 300
11,CSc1nc(NCCCO)c2c3c(sc2n1)CN(C)CC3,29.8
12,CCOC(=O)C1CCN(c2cc(C)nc3ccc(OC)cc23)CC1 [MLS000772886],> 300
13,C=CCNc1nc(N)c([N+](=O)[O-])c(NCCO)n1 [2-(2-Allylamino-6-amino-5-nitro-pyrimidin-4-ylamino)-ethanol],46.5
14,COc1ccccc1NC(=O)C(C)Nc1ccc(C)c(Cl)c1 (stereo not given),> 300
15,"N#CCCSc1nc(N2CCOCC2)c2c(c1C#N)CCCC2 [3-(2-cyanoethylthio)-1-(4-morpholinyl)-5,6,7,8-tetrahydroisoquinoline-4-carbonitrile]",9.29
16,"COc1ccc2nc3c(cc2c1)c(NC(=O)CC(C)C)nn3CC(C)C [N-[6-methoxy-1-(2-methylpropyl)-3-pyrazolo[3,4-b]quinolinyl]-3-methylbutanamide]",> 300
17,CC(N=Nc1nccnc1Cl)c1ccc(Br)cc1 (stereo not given) [N-[1-(4-bromophenyl)ethylideneamino]-3-chloranyl-pyrazin-2-amine],> 300
18,C=C1CSc2nc(=O)c3c4c(sc3n21)CCCC4 [MLS000108332],> 300
19,"CC1CCCCN1c1nnc(N)s1 (stereo not given) [5-(2-methyl-1-piperidinyl)-1,3,4-thiadiazol-2-amine]",> 300
20,CCCOc1ccc(-c2c(C(=O)NN=C(C)c3ccco3)nnn2-c2nonc2N)cc1,16.6
21,COc1ccc(-c2csc(N(CC3CCCO3)C(=O)c3ccccc3)n2)cc1 (stereo not given),> 300
22,CC(=O)Nc1ccc(S(=O)(=O)N(Cc2cccnc2)Cc2cc3ccccc3nc2O)cc1 [N-[4-[(2-oxidanylidene-1H-quinolin-3-yl)methyl-(pyridin-3-ylmethyl)sulfamoyl]phenyl]ethanamide],> 300
23,O=c1oc2cc(O)ccc2cc1-c1ccccc1 [7-Hydroxy-3-phenyl-chromen-2-one],> 300
24,"COc1ccc(Nc2nc(N)c(C(=O)c3ccc(OC)cc3)s2)cc1 [{4-amino-2-[(4-methoxyphenyl)amino]-1,3-thiazol-5-yl}(4-methoxyphenyl)methanone]",0.313
25,Oc1ccc2oc3c(c2c1)CCCC3,> 300
26,O=C(CS(=O)(=O)c1ccccc1)c1cc2ccccc2oc1=O [3-[2-(phenylsulfonyl)ethanoyl]chromen-2-one],> 300
27,O=C1CC(N2CCC(c3nc4ccccc4s3)CC2)C(=O)N1 (stereo not given) [MLS000063725],> 300
28,COC(=O)c1cc(C(=O)Nc2cc(C)ccn2)cc([N+](=O)[O-])c1 [methyl 3-{[(4-methyl-2-pyridinyl)amino]carbonyl}-5-nitrobenzoate],> 300
29,O=c1cc(NCc2ccccc2)nc2n1CCCS2 [MLS000027636],> 300
30,O=C(Nc1ccc(Cl)cc1)Nc1ccccn1 [1-(4-chlorophenyl)-3-(2-pyridinyl)urea],43.7
